ChEMBL document CHEMBL1201862, “PubChem BioAssay data set” (2004)
Active and inactive are the calls of the source.

Assays:
[1] = target: T1, Short transient receptor potential channel 4 (Mus musculus, UniProt Q9QUQ5); experiment: TRPC4 positive allosteric modulators, dose response, cell-based, HEK293 TRPC4/mu-opioid, Fluo-4 calcium, EC20 DAMGO (AID 434941); assay type: functional
T1 sequence (Q9QUQ5 whole entry): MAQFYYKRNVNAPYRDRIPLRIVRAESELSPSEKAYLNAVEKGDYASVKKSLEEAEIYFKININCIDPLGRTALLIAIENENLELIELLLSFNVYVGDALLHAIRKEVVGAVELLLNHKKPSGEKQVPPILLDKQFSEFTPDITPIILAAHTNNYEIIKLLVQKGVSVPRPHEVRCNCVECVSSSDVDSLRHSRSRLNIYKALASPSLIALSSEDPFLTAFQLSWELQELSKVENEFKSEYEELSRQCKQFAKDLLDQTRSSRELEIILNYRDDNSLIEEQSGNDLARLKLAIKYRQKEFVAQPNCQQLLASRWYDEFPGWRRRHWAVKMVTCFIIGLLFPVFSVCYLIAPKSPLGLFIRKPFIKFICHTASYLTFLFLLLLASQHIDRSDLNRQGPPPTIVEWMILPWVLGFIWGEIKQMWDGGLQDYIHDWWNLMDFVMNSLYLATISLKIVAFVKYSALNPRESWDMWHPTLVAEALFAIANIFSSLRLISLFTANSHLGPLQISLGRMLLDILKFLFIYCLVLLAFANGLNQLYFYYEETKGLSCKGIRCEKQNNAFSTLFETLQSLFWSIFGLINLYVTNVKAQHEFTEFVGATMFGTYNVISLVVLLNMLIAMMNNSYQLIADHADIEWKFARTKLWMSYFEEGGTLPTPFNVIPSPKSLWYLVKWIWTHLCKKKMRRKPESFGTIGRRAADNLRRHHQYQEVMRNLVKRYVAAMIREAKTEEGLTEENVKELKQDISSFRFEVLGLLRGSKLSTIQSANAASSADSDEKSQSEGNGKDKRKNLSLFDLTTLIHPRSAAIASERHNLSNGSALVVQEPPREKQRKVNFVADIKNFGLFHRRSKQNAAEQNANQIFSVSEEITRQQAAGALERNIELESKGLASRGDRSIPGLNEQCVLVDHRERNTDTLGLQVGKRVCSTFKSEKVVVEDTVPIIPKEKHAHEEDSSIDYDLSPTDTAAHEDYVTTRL

[2] = target: Luciferin 4-monooxygenase (Photinus pyralis, UniProt P08659); experiment: firefly luciferase enzyme inhibitors, dose response, biochemical, luminescence (AID 1891)
[3] = Luminescence Cell-Based Dose Confirmation HTS to Identify Inhibitors of Platelet Dense Granule Release. [Related pubchem assays: 1663 (Primary HTS), 1678 (Summary of Project)]; assay type: functional
[4] = A Cell Based Secondary Assay To Explore Cytotoxicity of Compounds that Sensitize Mycobacterium Tuberculosis to Beta-Lactam Antibiotics.; assay type: functional
[5] = target: NACHT, LRR and PYD domains-containing protein 3 (Homo sapiens, UniProt Q96P20); experiment: NALP3 inhibitors in yeast, dose response, luminescent (AID 488799); assay type: functional
[6] = target: Eukaryotic translation initiation factor 4H (Homo sapiens, UniProt Q15056); experiment: eIF4H inhibition in translation initiation, SAR follow-up (AID 435011); assay type: functional
[7] = target: Polyadenylate-binding protein 1 (Homo sapiens, UniProt P11940); experiment: PABP inhibition in translation initiation, SAR follow-up (AID 435018); assay type: functional
[8] = Vero E6 cell cytotoxicity, dose response, cytotoxicity control for non-replicating M. tuberculosis project, secondary assay (AID 492998); assay type: functional, VeroE6; conditions: Vero C1008
Vero = experiment: cells; assay type: functional; conditions: Chlorocebus sabaeus
[9] = HepG2 cell cytotoxicity, dose response, cytotoxicity control for non-replicating M. tuberculosis project (AID 489018); assay type: functional; conditions: Mycobacterium tuberculosis
[10] = target: T1, Short transient receptor potential channel 4; experiment: mouse TRPC4 channel activators, dose response, cell-based, HEK293 TRPC4/mu-opioid, Fluo-4 calcium (AID 434937); assay type: functional
cells = assay type: functional
[11] = THP-1 cell cytotoxicity, dose response, cytotoxicity control for non-replicating M. tuberculosis project (AID 489025); assay type: functional
Ion channel NompC = Ion channel NompC (Danio rerio, UniProt Q7T1G6); experiment: Fluorescence counterscreen assay for TRPML3 agonists: dose response cell-based high-throughput screening assay to identify agonists of the transient receptor potential channel N1 (TRPN1). [Related pubchem assays: 1526, 1424, 1448 ]; assay type: functional
[12] = cytotoxicity toward NIH3T3 fibroblasts, dose response, counter-screen, cell-based, ATP luminescence, mouse fibroblasts (AID 2010); assay type: functional;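 also: cells exposed to compound for about 90 hours before reading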
[13] = inhibitors of intracellular T. cruzi replication, confirmation, NIH3T3 host cells, beta-gal luminescence (AID 2044); assay type: functional, cell-based;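 also: intracellular parasites grown in NIH/3T3 mouse fibroblasts as host cells; luminescent beta-galactosidase reporter signal from transgenic T. cruzi replicating inside host cells; inhibitors lower the luminescence signal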
Mucolipin-3 = target: T2, Mucolipin-3 (Homo sapiens, UniProt Q8TDD5); experiment: Dose response cell-based high-throughput screening assay for agonists of the transient receptor potential channel ML3 (TRPML3). [Related pubchem assays: 1526, 1424, 1448 ]; assay type: functional
T2 sequence (Q8TDD5 whole entry): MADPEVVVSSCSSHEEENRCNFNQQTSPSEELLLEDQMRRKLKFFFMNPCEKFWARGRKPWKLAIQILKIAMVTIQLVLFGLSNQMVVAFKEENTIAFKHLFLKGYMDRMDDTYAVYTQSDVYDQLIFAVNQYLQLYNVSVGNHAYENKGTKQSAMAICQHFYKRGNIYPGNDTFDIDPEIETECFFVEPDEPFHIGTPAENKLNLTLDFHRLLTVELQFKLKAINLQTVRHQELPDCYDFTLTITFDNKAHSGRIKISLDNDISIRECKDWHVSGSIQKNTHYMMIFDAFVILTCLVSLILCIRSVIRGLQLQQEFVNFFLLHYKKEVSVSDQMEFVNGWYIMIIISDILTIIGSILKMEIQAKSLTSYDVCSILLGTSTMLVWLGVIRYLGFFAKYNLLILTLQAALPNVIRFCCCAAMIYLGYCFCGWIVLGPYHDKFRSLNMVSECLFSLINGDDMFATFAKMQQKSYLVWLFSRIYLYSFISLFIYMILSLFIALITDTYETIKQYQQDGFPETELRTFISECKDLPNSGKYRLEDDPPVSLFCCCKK

[14] = target: DNA dC->dU-editing enzyme APOBEC-3G (Homo sapiens, UniProt Q9HC16); assay type: functional;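 also: Dose-response counterscreen measuring inhibition of APOBEC3G DNA deaminase activity, run while confirming APOBEC3A inhibitors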
[15] = target: DNA dC->dU-editing enzyme APOBEC-3A (Homo sapiens, UniProt P31941); experiment: Dose Response confirmation of small molecule APOBEC3A DNA Deaminase Inhibitors via a fluorescence-based single-stranded DNA deaminase assay. [Related pubchem assays (depositor defined):AID493011, AID493024]; assay type: functional
Sequence of DNA dC->dU-editing enzyme APOBEC-3A (P31941 whole entry): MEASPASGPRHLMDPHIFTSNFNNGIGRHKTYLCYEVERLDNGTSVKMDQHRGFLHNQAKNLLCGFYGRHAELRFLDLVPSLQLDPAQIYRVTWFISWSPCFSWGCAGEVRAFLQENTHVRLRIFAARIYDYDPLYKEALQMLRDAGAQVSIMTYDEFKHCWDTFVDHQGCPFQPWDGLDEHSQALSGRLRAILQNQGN

Sequence of Polyadenylate-binding protein 1 (P11940 whole entry): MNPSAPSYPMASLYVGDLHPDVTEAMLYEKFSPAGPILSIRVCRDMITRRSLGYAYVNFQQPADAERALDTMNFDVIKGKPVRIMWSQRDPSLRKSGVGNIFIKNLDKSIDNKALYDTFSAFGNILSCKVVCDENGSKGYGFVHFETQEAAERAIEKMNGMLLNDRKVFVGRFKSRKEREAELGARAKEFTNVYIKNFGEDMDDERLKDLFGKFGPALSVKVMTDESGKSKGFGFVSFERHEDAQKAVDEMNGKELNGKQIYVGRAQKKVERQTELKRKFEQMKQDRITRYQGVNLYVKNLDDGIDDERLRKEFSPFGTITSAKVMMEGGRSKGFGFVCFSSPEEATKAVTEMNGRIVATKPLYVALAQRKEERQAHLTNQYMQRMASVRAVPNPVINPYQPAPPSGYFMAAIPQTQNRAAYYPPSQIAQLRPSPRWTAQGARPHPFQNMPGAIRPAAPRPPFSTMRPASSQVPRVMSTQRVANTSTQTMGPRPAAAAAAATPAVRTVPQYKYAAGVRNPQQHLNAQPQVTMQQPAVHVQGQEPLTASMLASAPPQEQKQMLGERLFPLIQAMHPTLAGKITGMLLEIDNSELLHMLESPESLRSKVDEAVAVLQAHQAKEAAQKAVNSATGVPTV
Sequence of DNA dC->dU-editing enzyme APOBEC-3G (Q9HC16 whole entry): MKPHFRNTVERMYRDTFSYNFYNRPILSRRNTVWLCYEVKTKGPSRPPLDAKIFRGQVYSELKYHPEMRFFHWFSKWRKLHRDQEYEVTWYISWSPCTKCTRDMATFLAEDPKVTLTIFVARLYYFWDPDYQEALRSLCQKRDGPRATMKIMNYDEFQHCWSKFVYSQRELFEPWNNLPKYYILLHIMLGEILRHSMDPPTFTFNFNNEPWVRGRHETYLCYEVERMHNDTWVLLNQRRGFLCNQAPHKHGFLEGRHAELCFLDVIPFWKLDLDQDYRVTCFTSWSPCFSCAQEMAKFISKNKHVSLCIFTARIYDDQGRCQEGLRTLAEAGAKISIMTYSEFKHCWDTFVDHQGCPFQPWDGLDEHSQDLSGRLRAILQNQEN
Sequence of Luciferin 4-monooxygenase (P08659 whole entry): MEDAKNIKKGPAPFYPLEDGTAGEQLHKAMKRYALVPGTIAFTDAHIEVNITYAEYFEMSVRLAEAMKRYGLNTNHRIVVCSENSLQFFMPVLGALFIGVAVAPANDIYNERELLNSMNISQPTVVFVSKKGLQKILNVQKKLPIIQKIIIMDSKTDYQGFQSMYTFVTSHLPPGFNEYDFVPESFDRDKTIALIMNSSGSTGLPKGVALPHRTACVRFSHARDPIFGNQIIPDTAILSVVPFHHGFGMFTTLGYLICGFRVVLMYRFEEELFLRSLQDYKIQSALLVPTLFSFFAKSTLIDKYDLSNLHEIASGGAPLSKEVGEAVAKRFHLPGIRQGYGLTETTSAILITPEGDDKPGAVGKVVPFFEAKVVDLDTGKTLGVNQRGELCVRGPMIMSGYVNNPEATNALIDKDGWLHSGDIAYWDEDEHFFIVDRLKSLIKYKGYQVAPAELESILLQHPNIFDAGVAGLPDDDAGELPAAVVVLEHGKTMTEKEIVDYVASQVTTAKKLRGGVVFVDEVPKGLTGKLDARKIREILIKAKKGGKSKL
Sequence of Ion channel NompC (Q7T1G6 whole entry): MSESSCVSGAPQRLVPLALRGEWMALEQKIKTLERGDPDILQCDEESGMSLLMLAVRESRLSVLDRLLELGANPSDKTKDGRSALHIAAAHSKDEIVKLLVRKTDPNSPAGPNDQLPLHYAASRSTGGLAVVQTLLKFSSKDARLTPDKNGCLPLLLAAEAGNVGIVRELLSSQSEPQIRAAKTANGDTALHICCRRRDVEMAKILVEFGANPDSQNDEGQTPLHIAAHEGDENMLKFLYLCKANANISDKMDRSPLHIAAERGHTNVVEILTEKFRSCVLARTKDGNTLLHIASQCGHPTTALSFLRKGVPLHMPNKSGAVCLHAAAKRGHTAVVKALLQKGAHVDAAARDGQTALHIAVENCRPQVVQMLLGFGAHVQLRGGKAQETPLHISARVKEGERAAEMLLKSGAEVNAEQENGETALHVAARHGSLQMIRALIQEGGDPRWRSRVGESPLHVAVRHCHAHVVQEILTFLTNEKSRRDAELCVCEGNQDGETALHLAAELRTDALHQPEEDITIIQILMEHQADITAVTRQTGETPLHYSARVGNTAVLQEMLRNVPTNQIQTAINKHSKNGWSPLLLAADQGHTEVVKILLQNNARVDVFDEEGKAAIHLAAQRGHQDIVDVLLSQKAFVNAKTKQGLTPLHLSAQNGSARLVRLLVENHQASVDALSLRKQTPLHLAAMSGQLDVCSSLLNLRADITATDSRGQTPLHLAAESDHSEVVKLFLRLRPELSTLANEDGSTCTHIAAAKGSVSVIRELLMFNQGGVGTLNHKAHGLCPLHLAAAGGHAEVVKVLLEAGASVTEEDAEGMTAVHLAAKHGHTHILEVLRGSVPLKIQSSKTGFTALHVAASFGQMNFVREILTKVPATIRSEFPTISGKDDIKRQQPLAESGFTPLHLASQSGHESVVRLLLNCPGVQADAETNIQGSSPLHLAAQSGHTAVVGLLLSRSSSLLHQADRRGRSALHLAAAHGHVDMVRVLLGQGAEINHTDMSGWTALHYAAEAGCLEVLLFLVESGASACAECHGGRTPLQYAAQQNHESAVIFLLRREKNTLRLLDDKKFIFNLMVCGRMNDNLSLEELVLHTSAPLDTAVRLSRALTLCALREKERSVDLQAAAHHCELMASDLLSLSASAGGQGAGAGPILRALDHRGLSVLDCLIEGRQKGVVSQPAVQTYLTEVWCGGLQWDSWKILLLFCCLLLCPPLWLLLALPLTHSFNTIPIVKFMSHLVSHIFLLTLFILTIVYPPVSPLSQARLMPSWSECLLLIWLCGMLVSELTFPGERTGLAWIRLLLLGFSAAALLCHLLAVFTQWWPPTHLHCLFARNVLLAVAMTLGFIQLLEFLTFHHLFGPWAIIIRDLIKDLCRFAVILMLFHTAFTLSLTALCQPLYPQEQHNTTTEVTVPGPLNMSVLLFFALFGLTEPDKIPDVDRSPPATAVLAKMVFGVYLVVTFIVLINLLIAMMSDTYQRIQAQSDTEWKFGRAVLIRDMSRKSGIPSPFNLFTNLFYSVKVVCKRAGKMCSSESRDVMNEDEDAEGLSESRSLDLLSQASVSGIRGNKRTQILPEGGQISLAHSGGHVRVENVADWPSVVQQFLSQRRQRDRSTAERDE
Sequence of NACHT, LRR and PYD domains-containing protein 3 (Q96P20 whole entry, the tested form may be a part): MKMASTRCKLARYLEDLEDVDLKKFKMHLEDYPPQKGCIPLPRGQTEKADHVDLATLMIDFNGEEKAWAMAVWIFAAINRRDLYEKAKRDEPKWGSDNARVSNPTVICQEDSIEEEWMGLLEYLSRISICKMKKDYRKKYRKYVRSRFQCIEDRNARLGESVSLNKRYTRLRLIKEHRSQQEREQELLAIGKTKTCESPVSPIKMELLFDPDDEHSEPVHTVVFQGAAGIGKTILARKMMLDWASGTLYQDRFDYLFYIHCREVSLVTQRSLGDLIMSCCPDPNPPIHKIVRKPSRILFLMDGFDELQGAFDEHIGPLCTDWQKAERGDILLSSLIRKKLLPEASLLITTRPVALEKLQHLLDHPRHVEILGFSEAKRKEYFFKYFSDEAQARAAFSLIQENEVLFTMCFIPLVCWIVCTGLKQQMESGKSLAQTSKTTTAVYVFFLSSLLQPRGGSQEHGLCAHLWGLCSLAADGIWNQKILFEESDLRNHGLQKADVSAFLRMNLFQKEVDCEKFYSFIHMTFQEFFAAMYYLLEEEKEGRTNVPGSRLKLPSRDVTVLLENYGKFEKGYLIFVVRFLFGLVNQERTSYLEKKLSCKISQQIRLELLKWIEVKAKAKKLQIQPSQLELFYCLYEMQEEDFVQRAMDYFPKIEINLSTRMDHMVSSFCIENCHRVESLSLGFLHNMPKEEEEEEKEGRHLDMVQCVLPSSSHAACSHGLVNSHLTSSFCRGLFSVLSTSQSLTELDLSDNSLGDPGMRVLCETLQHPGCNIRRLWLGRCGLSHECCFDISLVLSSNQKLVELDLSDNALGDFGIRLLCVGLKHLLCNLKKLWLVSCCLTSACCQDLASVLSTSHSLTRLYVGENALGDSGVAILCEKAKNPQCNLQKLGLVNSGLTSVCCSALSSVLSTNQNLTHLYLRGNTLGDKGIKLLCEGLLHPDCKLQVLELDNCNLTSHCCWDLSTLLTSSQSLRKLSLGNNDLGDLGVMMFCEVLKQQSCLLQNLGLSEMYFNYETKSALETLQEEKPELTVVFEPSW

SMILES: C1CCN(c2nc(N3CCCC3)nc(N3CCNCC3)n2)C1
- EC50 [1]: 2.66 µM (active)
- EC50 [2]: > 112 µM (not active)
- EC50 [3]: > 112 µM (not active)

SMILES: CN(C)CCNc1ccc(Cl)cc1[N+](=O)[O-]
- EC50 [1]: 0.01 µM (active)

SMILES: OCCCn1c(C2CCCN2c2nc(-c3ccc(Cl)cc3)cs2)nc2cc(Cl)c(Cl)cc21 (configuration not stated)
- CC50 [4]: > 40 µM (active)

SMILES: CCC1Nc2ncnc(N3CCN(c4ccccn4)CC3)c2N(Cc2ccc(Cl)cc2)C1=O (configuration not stated)
- IC50 [5]: 3.16 µM (active)

SMILES: CNc1nc(N2CCc3ccccc32)ncc1F
- EC50 [1]: 0.75 µM (active)

SMILES: O=C(Nc1ccc(Br)cc1)C1CCCN1C(=O)Oc1ccccc1 (configuration not stated)
- IC50 [6]: > 100 µM (inactive)
- IC50 [7]: > 100 µM (inactive)

SMILES: Cc1ccc(N=C(S)Nc2ncccc2C)c(C)c1
- CC50 [4]: > 40 µM (active)

SMILES: Cc1nc(N/C(N)=N/C(=O)NC2CCCCC2)nc2ccccc12
- CC50 [8]: 13.3 µM (active)
- CC50 (Vero): 19.2 µM (active)
- CC50 [9]: 17.7 µM (active)
- EC50 [10]: 0.0667 µM (active)
- IC50 (cells): 3.25 µM (active)
- CC50 [11]: 16.9 µM (active)

SMILES: CCOc1ccc(S(=O)(=O)NC(C)(C)C)cc1-c1nc(O)c2c(n1)c(C(C)(C)C)nn2C
- EC50 (Ion channel NompC): > 29.9 µM (not active)
- EC50 [12]: 8.45 µM (active)
- EC50 [13]: 1.26 µM (active)
- EC50 (Mucolipin-3): 0.781 µM (active)

SMILES: CN(C)CC1CCCCC1OC(=O)Cc1ccc(Cl)c([N+](=O)[O-])c1 (configuration not stated)
- IC50 [14]: 4.69 µM (active)
- IC50 [15]: 2.81 µM (active)
